US20260193264A1, “BENZOYPARAZINE PYRAZINES AND THEIR USES” (FOGHORN THERAPEUTICS INC., priority 2022, published 2026)

Tests used:
[1] = target: T1, HiBit-BRG1 fusion protein in stable HeLa cell line expressing HiBit-BRG1 and LgBit (Homo sapiens, UniProt P51532); assay: HiBiT-BRG1 cell-based degradation assay (Nano-Glo HiBiT, 24 h); settings: HeLa HiBit-BRG1/LgBit cells; for Dmax: top dose 30 μM, read-out: BRG1 HiBit Degradation Maximum (%); for DC50: read-out: BRMG1 HiBit Degradation IC50
T1 construct: expressed in transfected cells
T1 sequence (P51532 whole entry, the tested form may be a part): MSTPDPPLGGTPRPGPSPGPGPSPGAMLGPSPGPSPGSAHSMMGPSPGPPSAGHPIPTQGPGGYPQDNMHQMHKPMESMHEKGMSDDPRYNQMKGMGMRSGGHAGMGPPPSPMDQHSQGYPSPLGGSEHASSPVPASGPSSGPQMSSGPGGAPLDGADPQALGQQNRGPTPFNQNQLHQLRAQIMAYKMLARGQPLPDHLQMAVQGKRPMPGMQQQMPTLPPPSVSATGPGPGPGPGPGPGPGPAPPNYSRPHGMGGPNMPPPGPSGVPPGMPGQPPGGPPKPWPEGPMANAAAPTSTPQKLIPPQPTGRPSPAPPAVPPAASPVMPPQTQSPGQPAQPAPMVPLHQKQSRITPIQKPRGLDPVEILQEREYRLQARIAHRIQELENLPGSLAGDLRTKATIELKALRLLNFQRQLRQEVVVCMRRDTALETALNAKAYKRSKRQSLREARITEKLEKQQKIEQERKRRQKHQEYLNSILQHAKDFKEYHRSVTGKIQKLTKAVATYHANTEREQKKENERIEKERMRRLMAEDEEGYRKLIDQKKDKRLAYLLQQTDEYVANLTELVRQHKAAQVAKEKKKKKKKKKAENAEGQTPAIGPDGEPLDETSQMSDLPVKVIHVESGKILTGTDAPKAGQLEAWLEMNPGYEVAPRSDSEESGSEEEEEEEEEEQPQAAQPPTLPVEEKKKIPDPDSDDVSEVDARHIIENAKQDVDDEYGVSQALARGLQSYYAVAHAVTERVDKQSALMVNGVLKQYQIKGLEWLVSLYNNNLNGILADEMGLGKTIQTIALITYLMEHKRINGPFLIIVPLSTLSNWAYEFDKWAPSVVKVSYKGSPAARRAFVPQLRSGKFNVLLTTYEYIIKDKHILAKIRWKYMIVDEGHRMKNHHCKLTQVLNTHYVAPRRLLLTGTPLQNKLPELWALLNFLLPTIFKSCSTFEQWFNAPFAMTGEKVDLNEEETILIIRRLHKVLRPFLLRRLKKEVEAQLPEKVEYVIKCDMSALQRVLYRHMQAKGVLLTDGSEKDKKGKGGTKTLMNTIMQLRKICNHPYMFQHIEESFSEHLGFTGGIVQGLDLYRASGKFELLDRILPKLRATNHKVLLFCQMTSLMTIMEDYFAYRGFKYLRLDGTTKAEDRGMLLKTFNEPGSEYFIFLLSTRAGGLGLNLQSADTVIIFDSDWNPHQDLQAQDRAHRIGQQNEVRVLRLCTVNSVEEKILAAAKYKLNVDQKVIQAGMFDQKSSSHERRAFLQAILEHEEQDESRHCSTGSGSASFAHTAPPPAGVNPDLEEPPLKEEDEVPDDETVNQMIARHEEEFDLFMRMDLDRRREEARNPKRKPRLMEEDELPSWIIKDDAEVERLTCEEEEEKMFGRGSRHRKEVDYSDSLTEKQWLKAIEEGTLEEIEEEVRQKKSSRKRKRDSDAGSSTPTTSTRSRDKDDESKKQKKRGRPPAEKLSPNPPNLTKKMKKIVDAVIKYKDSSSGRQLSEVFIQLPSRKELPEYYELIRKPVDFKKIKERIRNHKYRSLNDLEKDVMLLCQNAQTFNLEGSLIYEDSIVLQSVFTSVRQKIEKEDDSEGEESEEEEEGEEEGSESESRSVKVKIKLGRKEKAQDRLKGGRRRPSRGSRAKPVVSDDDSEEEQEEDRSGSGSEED
Summary of the method: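 Stable HeLa line co-expressing HiBiT-BRG1 and LgBiT, compound-treated 24 h; luminescence read after Nano-Glo HiBiT lytic reagent. % degradation normalised between DMSO (high control) and 2 μM reference BRM/BRG1 degrader (low control).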

[2] = target: T2, HiBiT-BRM fusion protein in stable HeLa cell line (Homo sapiens, UniProt P51531); assay: HiBiT-BRM cell-based degradation assay (Nano-Glo HiBiT Lytic Detection, 24 h); design: DC50: scale not given here; settings: HeLa HiBiT-BRM cells; for DC50: read-out: BRM HiBit Degradation IC50; for BRM HiBit Degradation Maximum (%): top dose 30 μM
T2 construct: expressed in transfected cells
T2 sequence (P51531 whole entry, the tested form may be a part): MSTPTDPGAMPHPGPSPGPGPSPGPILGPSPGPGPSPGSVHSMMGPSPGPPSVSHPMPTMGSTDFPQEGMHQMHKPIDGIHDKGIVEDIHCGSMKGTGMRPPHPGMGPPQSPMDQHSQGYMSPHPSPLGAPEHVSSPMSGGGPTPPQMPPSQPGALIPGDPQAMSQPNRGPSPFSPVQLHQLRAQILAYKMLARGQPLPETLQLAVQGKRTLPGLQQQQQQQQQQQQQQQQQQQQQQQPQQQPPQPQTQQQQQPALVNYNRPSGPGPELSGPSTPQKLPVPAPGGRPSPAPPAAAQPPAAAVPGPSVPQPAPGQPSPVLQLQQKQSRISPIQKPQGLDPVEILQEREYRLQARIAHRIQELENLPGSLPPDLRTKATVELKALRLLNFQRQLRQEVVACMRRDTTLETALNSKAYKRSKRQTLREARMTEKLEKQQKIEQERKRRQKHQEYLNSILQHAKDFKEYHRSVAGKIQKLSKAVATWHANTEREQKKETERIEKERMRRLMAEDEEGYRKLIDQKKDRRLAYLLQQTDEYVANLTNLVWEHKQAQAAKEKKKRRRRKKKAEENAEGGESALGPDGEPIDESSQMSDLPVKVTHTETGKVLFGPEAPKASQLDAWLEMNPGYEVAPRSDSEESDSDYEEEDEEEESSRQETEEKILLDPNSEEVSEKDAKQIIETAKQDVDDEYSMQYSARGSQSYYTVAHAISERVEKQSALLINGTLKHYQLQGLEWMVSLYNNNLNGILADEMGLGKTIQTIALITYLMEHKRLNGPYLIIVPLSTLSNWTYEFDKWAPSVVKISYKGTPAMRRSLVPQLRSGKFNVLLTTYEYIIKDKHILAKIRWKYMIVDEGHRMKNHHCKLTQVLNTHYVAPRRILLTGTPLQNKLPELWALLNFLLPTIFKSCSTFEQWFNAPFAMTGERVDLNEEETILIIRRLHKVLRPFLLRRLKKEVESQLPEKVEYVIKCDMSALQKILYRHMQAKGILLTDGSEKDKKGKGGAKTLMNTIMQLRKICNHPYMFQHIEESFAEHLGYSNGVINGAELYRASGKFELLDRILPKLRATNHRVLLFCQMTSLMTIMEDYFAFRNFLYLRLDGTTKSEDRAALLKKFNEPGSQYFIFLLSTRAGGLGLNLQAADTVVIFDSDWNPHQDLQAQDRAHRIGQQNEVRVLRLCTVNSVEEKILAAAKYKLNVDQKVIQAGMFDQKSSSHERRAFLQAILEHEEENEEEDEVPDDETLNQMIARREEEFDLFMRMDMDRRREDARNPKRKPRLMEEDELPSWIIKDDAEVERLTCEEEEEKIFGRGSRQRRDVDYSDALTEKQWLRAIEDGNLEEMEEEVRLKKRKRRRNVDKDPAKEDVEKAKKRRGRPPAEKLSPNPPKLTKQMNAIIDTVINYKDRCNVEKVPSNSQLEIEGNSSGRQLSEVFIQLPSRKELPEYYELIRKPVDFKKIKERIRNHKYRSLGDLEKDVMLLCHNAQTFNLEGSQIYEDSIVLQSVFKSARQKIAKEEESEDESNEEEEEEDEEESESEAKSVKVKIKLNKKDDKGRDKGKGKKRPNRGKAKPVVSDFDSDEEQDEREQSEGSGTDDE
Summary of the method: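 Stable HiBiT-BRM HeLa cells treated 24 h with 10-point 3-fold dilutions, top final dose 30 μM, in duplicate. Luminescence read after lytic LgBiT reagent. Percent degradation was normalised to DMSO (high control) and 2 μM reference BRM/BRG1 degrader (low control).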

Dmax [1] [%] | DC50 [2] [nM] | DC50 [1] [nM] | Compound | BRM HiBit Degradation Maximum (%) [2]
< 50 | < 10 | – | Cc1ncsc1-c1ccc([C@H](C)NC(=O)[C@@H]2C[C@@H](O)CN2C(=O)[C@@H](c2cc(N3CC[C@@H](c4ccc5cc(-c6ccccc6O)nnc5c4)C3)no2)C(C)C)cc1 [Compound 58, (2S,4R)-4-hydroxy-1-((R)-2-(3-((S)-3-(3-(2-hydroxyphenyl)cinnolin-7-yl)pyrrolidin-1-yl)isoxazol-5-yl)-3-methylbutanoyl)-N-((S)-1-(4-(4-methylthiazol-5-yl)phenyl)ethyl)pyrrolidine-2-carboxamide] | A (“A” indicates maximum degradation ≥75%)
< 50 | < 10 | – | Cc1ncsc1-c1ccc([C@H](C)NC(=O)[C@@H]2C[C@@H](O)CN2C(=O)[C@@H](c2cc(N3C[C@@H]4[C@H](C3)[C@H]4c3ccc4cc(-c5ccccc5O)nnc4c3)no2)C(C)C)cc1 [Compound 59, (2S,4R)-4-hydroxy-1-((R)-2-(3-((1R,5S,6S)-6-(3-(2-hydroxyphenyl)cinnolin-7-yl)-3-azabicyclo[3.1.0]hexan-3-yl)isoxazol-5-yl)-3-methylbutanoyl)-N-((S)-1-(4-(4-methylthiazol-5-yl)phenyl)ethyl)pyrrolidine-2-carboxamide] | A (“A” indicates maximum degradation ≥75%)
> 75 | < 10 | < 10 | Cc1ncsc1-c1ccc([C@H](C)NC(=O)[C@@H]2C[C@@H](O)CN2C(=O)[C@@H](c2cc(N3CC[C@H](c4ccc5cc(-c6ccccc6O)nnc5c4)C3)no2)C(C)C)cc1 [Compound 60, (2S,4R)-4-hydroxy-1-((R)-2-(3-((R)-3-(3-(2-hydroxyphenyl)cinnolin-7-yl)pyrrolidin-1-yl)isoxazol-5-yl)-3-methylbutanoyl)-N-((S)-1-(4-(4-methylthiazol-5-yl)phenyl)ethyl)pyrrolidine-2-carboxamide] | A (“A” indicates maximum degradation ≥75%)
< 50 | > 10 | – | Cc1ncsc1-c1ccc([C@H](C)NC(=O)[C@@H]2C[C@@H](O)CN2C(=O)[C@@H](c2cc(N3CCC(c4ccc5nnc(-c6ccccc6O)cc5c4)CC3)no2)C(C)C)cc1 [Compound 61, (2S,4R)-4-hydroxy-1-((R)-2-(3-(4-(3-(2-hydroxyphenyl)cinnolin-6-yl)piperidin-1-yl)isoxazol-5-yl)-3-methylbutanoyl)-N-((S)-1-(4-(4-methylthiazol-5-yl)phenyl)ethyl)pyrrolidine-2-carboxamide] | A (“A” indicates maximum degradation ≥75%)
> 75 | < 10 | > 10 | Cc1ncsc1-c1ccc([C@H](C)NC(=O)[C@@H]2C[C@@H](O)CN2C(=O)[C@@H](c2cc(N3CC4(CCC(c5ccc6nnc(-c7ccccc7O)cc6c5)CC4)C3)no2)C(C)C)cc1 [Compound 62, (2S,4R)-4-hydroxy-1-((R)-2-(3-(7-(3-(2-hydroxyphenyl)cinnolin-6-yl)-2-azaspiro[3.5]nonan-2-yl)isoxazol-5-yl)-3-methylbutanoyl)-N-((S)-1-(4-(4-methylthiazol-5-yl)phenyl)ethyl)pyrrolidine-2-carboxamide] | A (“A” indicates maximum degradation ≥75%)
> 50 | < 10 | > 10 | Cc1cc(-c2cc([C@H](C(=O)N3C[C@H](O)C[C@H]3C(=O)N[C@@H](C)c3ccc(-c4scnc4C)cc3)C(C)C)on2)cnc1N1CCC(c2ccc3nnc(-c4ccccc4O)cc3c2)CC1 [Compound 64, (2S,4R)-4-hydroxy-1-((R)-2-(3-(6-(4-(3-(2-hydroxyphenyl)cinnolin-6-yl)piperidin-1-yl)-5-methylpyridin-3-yl)isoxazol-5-yl)-3-methylbutanoyl)-N-((S)-1-(4-(4-methylthiazol-5-yl)phenyl)ethyl)pyrrolidine-2-carboxamide] | A (“A” indicates maximum degradation ≥75%)
< 50 | < 10 | – | Cc1ncsc1-c1ccc([C@H](C)NC(=O)[C@@H]2C[C@@H](O)CN2C(=O)[C@@H](c2cc(N3CC4(CN(c5ccc6nnc(-c7ccccc7O)cc6c5)C4)C3)no2)C(C)C)cc1 [Compound 66, (2S,4R)-4-hydroxy-1-((R)-2-(3-(6-(3-(2-hydroxyphenyl)cinnolin-6-yl)-2,6-diazaspiro[3.3]heptan-2-yl)isoxazol-5-yl)-3-methylbutanoyl)-N-((S)-1-(4-(4-methylthiazol-5-yl)phenyl)ethyl)pyrrolidine-2-carboxamide] | A (“A” indicates maximum degradation ≥75%)
> 75 | < 10 | > 10 | Cc1ncsc1-c1ccc([C@H](C)NC(=O)[C@@H]2C[C@@H](O)CN2C(=O)[C@@H](c2cc(N3CCC4(CC3)CN(c3ccc5nnc(-c6ccccc6O)cc5c3)C4)no2)C(C)C)cc1 [Compound 67, (2S,4R)-4-hydroxy-1-((R)-2-(3-(2-(3-(2-hydroxyphenyl)cinnolin-6-yl)-2,7-diazaspiro[3.5]nonan-7-yl)isoxazol-5-yl)-3-methylbutanoyl)-N-((S)-1-(4-(4-methylthiazol-5-yl)phenyl)ethyl)pyrrolidine-2-carboxamide] | A (“A” indicates maximum degradation ≥75%)
> 75 | < 10 | > 10 | Cc1ncsc1-c1ccc([C@H](C)NC(=O)[C@@H]2C[C@@H](O)CN2C(=O)[C@@H](c2cc(-c3cnc(N4CC(c5cc6nnc(-c7ccccc7O)cc6cc5C5CC5)C4)nc3)no2)C(C)C)cc1 [Compound 68, (2S,4R)-1-((R)-2-(3-(2-(3-(6-cyclopropyl-3-(2-hydroxyphenyl)cinnolin-7-yl)azetidin-1-yl)pyrimidin-5-yl)isoxazol-5-yl)-3-methylbutanoyl)-4-hydroxy-N-((S)-1-(4-(4-methylthiazol-5-yl)phenyl)ethyl)pyrrolidine-2-carboxamide] | A (“A” indicates maximum degradation ≥75%)
> 50 | < 10 | > 100 | Cc1nc(N2CCC(c3ccc4nnc(-c5ccccc5O)cc4c3)CC2)ccc1-c1cc([C@H](C(=O)N2C[C@H](O)C[C@H]2C(=O)N[C@@H](C)c2ccc(-c3scnc3C)cc2)C(C)C)on1 [Compound 69, (2S,4R)-4-hydroxy-1-((R)-2-(3-(6-(4-(3-(2-hydroxyphenyl)cinnolin-6-yl)piperidin-1-yl)-2-methylpyridin-3-yl)isoxazol-5-yl)-3-methylbutanoyl)-N-((S)-1-(4-(4-methylthiazol-5-yl)phenyl)ethyl)pyrrolidine-2-carboxamide] | A (“A” indicates maximum degradation ≥75%)
> 50 | > 10 | > 10 | Cc1cc(N2CCC(c3ccc4nnc(-c5ccccc5O)cc4c3)CC2)ncc1-c1cc([C@H](C(=O)N2C[C@H](O)C[C@H]2C(=O)N[C@@H](C)c2ccc(-c3scnc3C)cc2)C(C)C)on1 [Compound 70, (2S,4R)-4-hydroxy-1-((R)-2-(3-(6-(4-(3-(2-hydroxyphenyl)cinnolin-6-yl)piperidin-1-yl)-4-methylpyridin-3-yl)isoxazol-5-yl)-3-methylbutanoyl)-N-((S)-1-(4-(4-methylthiazol-5-yl)phenyl)ethyl)pyrrolidine-2-carboxamide] | A (“A” indicates maximum degradation ≥75%)
